Measurements as given in patent US3982931A, “N,N-di-sec.butyl-benzamide herbicides” (priority 1967, dated 1976).

Experiments:
chenopodium album L. = experiment: herbicidal activity, soil treatment one day after sowing; type: in vivo
[1] = test system: amaranthus retroflexus L.; experiment: as above; type: in vivo
oryza sativa L. (rice) = experiment: activity on agrarian species, soil treatment one day after sowing; type: in vivo
In short: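 Activity scored 0 (no difference from control) to 4 (no germination or total containment of emerging plants), intermediates given both classes. Product spread on soil one day after sowing rice, at rates of 1, 3, 6, 8, 10, 12 and 14 kg/ha.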

pisum sativum L. (pea) = experiment: as above; type: in vivo
[2] = test system: echinocloa crus-galli R.S.; experiment: herbicidal activity, soil treatment one day after sowing; type: in vivo
rice = experiment: Example 2 basin test, rice-field soil, granular composition; type: in vivo; conditions: 4 - 6 - 8 kg/ha
Protocol: (§1) Into 2 sq.m. basins containing rice-field soil were sown rice and Echinocloa crus-galli. After having submerged the soil with 10 cm of water, treatments were carried out by distributing uniformly on the soil a granular composition containing 5% of PA 300 and 95% of bentonite in doses equal to 0 - 4 - 6 - 8 kg of active principle per hectar.

Echinocloa crus-galli = experiment: as above; type: in vivo; conditions: 4 - 6 - 8 kg/ha
Protocol: as §1

zea mais L. (corn) = experiment: activity on agrarian species, soil treatment one day after sowing; type: in vivo
In short: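 Crop injury rated 0–4 relative to control, from no difference up to complete germination failure or arrest of emerging plants; in-between responses get both values. Product spread on soil at 1–14 kg/ha (1, 3, 6, 8, 10, 12, 14) one day post-sowing.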

[3] = test system: phaseolus vulgaris (bean); experiment: as above; type: in vivo, Phaseolus vulgaris L.
In short: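 Activity on bean was rated from 0 (no difference from control) to 4 (germination prevented or plants fully contained at emergence), with both classes noted for intermediate effects. Soil treatment one day after sowing, at rates of 1, 3, 6, 8, 10, 12 and 14 kg/ha.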

setaria glauca L. = experiment: herbicidal activity, soil treatment one day after sowing; type: in vivo
avena sativa (oats) = experiment: activity on agrarian species, soil treatment one day after sowing; type: in vivo, Avena sativa L.
[4] = test system: triticum vulgare L. (wheat); experiment: as above; type: in vivo
From the text: The infesting species and the agrarian species have been indicated in Table 1 by letters, as follows:
N = triticum vulgare L. (wheat)
Method of evaluation of the results (of tests):
0 = no activity and no difference with respect to the control;
1 slight differences with respect to the control;
3 = considerable activity with damages that definitely impair the further development of most of the small plants; an activity degree already useful for practical purposes;
4 = maximum of activity with lack of germination or total containment of the small plants in the emerging stage.
In the case of an intermediate activity between two classes of the scale, both values are recorded with the one which corresponds to the preeminent activity preceding.
TABLE 2 reports the activity data of other compounds that fall within the class which is the object of this invention.
TABLE 3 reports data on the herbicidal activity against infesting herbs, while TABLE 4 reports data concerning the activity on useful species of agricultural cultivations. These tables employ the criterion explained previously. The product was spread on the soil one day after sowing, in quantities of 1, 3, 6, 8, 10, 12 and 14 kg/ha.

artemisia vulgaris L. = experiment: herbicidal activity, soil treatment one day after sowing; type: in vivo
vicia sativa L. = experiment: as above; type: in vivo
In short: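 Pre-emergence soil treatment one day after sowing; activity scored visually on a […] scale against untreated control, from slight difference (1) to no germination or total containment at emergence (4); intermediate activity recorded as both classes, preeminent value first.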

[5] = toxicity towards warm-blooded animals, LD 50 per os on rat; conditions: in vivo, po

Compound: CCC(C)N(C(=O)c1cc(Cl)cc(Cl)c1Cl)C(C)CC (stereo not drawn) [PA300, 2,3,5-trichloro-N,N-di-sec.butyl-benzamide]
- activity on C, 0-4 scale (chenopodium album L.; 1 kg/ha): 0-1
- activity on C, 0-4 scale (chenopodium album L.; 2 kg/ha): 1
- activity on C, 0-4 scale (chenopodium album L.; 4 kg/ha): 1-2
- activity on C, 0-4 scale (chenopodium album L.; 6 kg/ha): 1-2
- activity on A, 0-4 scale ([1]; 1 kg/ha): 0-1
- activity on A, 0-4 scale ([1]; 2 kg/ha): 1
- activity on A, 0-4 scale ([1]; 4 kg/ha): 1
- activity on A, 0-4 scale ([1]; 6 kg/ha): 1
- activity on P, 0-4 scale (oryza sativa L. (rice); 3 kg/ha): 0
- activity on P, 0-4 scale (oryza sativa L. (rice); 6 kg/ha): 0
- activity on L, 0-4 scale (pisum sativum L. (pea); 3 kg/ha): 0
- activity on L, 0-4 scale (pisum sativum L. (pea); 6 kg/ha): 0
- activity on D, 0-4 scale ([2]; 1 kg/ha): 3
- activity on D, 0-4 scale ([2]; 2 kg/ha): 3-4
- activity on D, 0-4 scale ([2]; 4 kg/ha): 4-3
- activity on D, 0-4 scale ([2]; 6 kg/ha): 4
- development of rice (rice): the rice developed regularly
- development of Echinocloa crus-galli plants (Echinocloa crus-galli): no Echinocloa crus-galli plant developed
- activity on O, 0-4 scale (zea mais L. (corn); 3 kg/ha): 0
- activity on O, 0-4 scale (zea mais L. (corn); 6 kg/ha): 0
- activity on I, 0-4 scale ([3]; 3 kg/ha): 0
- activity on I, 0-4 scale ([3]; 6 kg/ha): 0
- activity on E, 0-4 scale (setaria glauca L.; 1 kg/ha): 3-4
- activity on E, 0-4 scale (setaria glauca L.; 2 kg/ha): 4-3
- activity on E, 0-4 scale (setaria glauca L.; 4 kg/ha): 4
- activity on E, 0-4 scale (setaria glauca L.; 6 kg/ha): 4
- activity on G, 0-4 scale (avena sativa (oats); 3 kg/ha): 0
- activity on G, 0-4 scale (avena sativa (oats); 6 kg/ha): 1
- activity on N, 0-4 scale ([4]; 3 kg/ha): 0
- activity on N, 0-4 scale ([4]; 6 kg/ha): 0
- activity on B, 0-4 scale (artemisia vulgaris L.; 1 kg/ha): 0-1
- activity on B, 0-4 scale (artemisia vulgaris L.; 2 kg/ha): 1-0
- activity on B, 0-4 scale (artemisia vulgaris L.; 4 kg/ha): 1
- activity on B, 0-4 scale (artemisia vulgaris L.; 6 kg/ha): 1
- activity on F, 0-4 scale (vicia sativa L.; 1 kg/ha): 0
- activity on F, 0-4 scale (vicia sativa L.; 2 kg/ha): 0
- activity on F, 0-4 scale (vicia sativa L.; 4 kg/ha): 0
- activity on F, 0-4 scale (vicia sativa L.; 6 kg/ha): 0

Compound: CCC(C)N(CC)C(=O)c1ccc(Cl)c(Cl)c1 (stereo not drawn) [PA631, 3,4-dichloro-N-ethyl,N-sec.butyl-benzamide]
- activity on C, 0-4 scale (chenopodium album L.; 6 kg/ha): 3
- LD50 [5]: 930 mg/kg
- activity on A, 0-4 scale ([1]; 6 kg/ha): 2
- activity on D, 0-4 scale ([2]; 6 kg/ha): 3
- activity on E, 0-4 scale (setaria glauca L.; 6 kg/ha): 3
- activity on B, 0-4 scale (artemisia vulgaris L.; 6 kg/ha): 2
- activity on F, 0-4 scale (vicia sativa L.; 6 kg/ha): 0-1
